{"source": "PubChem BioAssay (NCI)", "assay_in_all_cases": "DTP human tumour cell line panel, 48 h", "key": {"NCI-H23 lung": {"system": "NCI-H23 lung"}, "HS 578T breast": {"system": "HS 578T breast"}, "MDA-MB-435": {"system": "MDA-MB-435"}, "ACHN renal": {"system": "ACHN renal"}, "SK-OV-3 ovarian": {"system": "SK-OV-3 ovarian"}, "786-0 renal": {"system": "786-0 renal"}, "M14 melanoma": {"system": "M14 melanoma"}, "SF-539 CNS": {"system": "SF-539 CNS"}, "BT-549 breast": {"system": "BT-549 breast"}, "HCT-15 colon": {"system": "HCT-15 colon"}, "HL-60(TB) leukemia": {"system": "HL-60(TB) leukemia"}, "IGROV1 ovarian": {"system": "IGROV1 ovarian"}, "OVCAR-3 ovarian": {"system": "OVCAR-3 ovarian"}, "TK-10 renal": {"system": "TK-10 renal"}, "HCC-2998 colon": {"system": "HCC-2998 colon"}, "A498 renal": {"system": "A498 renal"}, "MDA-MB-231 breast": {"system": "MDA-MB-231 breast"}, "MALME-3M melanoma": {"system": "MALME-3M melanoma"}, "CCRF-CEM leukemia": {"system": "CCRF-CEM leukemia"}, "SF-268 CNS": {"system": "SF-268 CNS"}, "SR leukemia": {"system": "SR leukemia"}, "HCT-116 colon": {"system": "HCT-116 colon"}, "DU-145 prostate": {"system": "DU-145 prostate"}, "SW-620 colon": {"system": "SW-620 colon"}, "RXF 393 renal": {"system": "RXF 393 renal"}, "U251 CNS": {"system": "U251 CNS"}, "LOX IMVI melanoma": {"system": "LOX IMVI melanoma"}, "OVCAR-5 ovarian": {"system": "OVCAR-5 ovarian"}, "UACC-257 melanoma": {"system": "UACC-257 melanoma"}}, "note": "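Values below derive from 48-hour exposures of cells grown in 96-well plates, with endpoints linearly interpolated between the two concentrations bracketing the appropriate inhibition level. GI50: concentration for 50% inhibition of growth. The concentration for full growth arrest is given as TGI.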"}
{"compound": "O=S1CCN(Cc2ccc(-c3ccc4ncnc(Nc5ccc(OCc6ccccc6)c(Cl)c5)c4c3)o2)CC1", "values": [{"measurement": "GI50", "setting": "NCI-H23 lung", "result": 13.3, "unit": "µM"}, {"measurement": "TGI", "setting": "NCI-H23 lung", "result": "> 25", "unit": "µM"}, {"measurement": "GI50", "setting": "HS 578T breast", "result": "> 21.6", "unit": "µM"}, {"measurement": "TGI", "setting": "HS 578T breast", "result": "> 25", "unit": "µM"}, {"measurement": "GI50", "setting": "MDA-MB-435", "result": 8.95, "unit": "µM"}, {"measurement": "TGI", "setting": "MDA-MB-435", "result": "> 25", "unit": "µM"}, {"measurement": "GI50", "setting": "ACHN renal", "result": 0.656, "unit": "µM"}, {"measurement": "TGI", "setting": "ACHN renal", "result": "> 25", "unit": "µM"}, {"measurement": "GI50", "setting": "SK-OV-3 ovarian", "result": 0.0917, "unit": "µM"}, {"measurement": "TGI", "setting": "SK-OV-3 ovarian", "result": "> 25", "unit": "µM"}, {"measurement": "GI50", "setting": "786-0 renal", "result": 10.7, "unit": "µM"}, {"measurement": "TGI", "setting": "786-0 renal", "result": "> 25", "unit": "µM"}, {"measurement": "GI50", "setting": "M14 melanoma", "result": 10, "unit": "µM"}, {"measurement": "TGI", "setting": "M14 melanoma", "result": "> 25", "unit": "µM"}, {"measurement": "GI50", "setting": "SF-539 CNS", "result": "> 15.3", "unit": "µM"}, {"measurement": "TGI", "setting": "SF-539 CNS", "result": "> 25", "unit": "µM"}, {"measurement": "GI50", "setting": "BT-549 breast", "result": 9.62, "unit": "µM"}, {"measurement": "TGI", "setting": "BT-549 breast", "result": "> 20.5", "unit": "µM"}, {"measurement": "GI50", "setting": "HCT-15 colon", "result": 7.78, "unit": "µM"}, {"measurement": "TGI", "setting": "HCT-15 colon", "result": "> 25", "unit": "µM"}, {"measurement": "GI50", "setting": "HL-60(TB) leukemia", "result": 10.6, "unit": "µM"}, {"measurement": "TGI", "setting": "HL-60(TB) leukemia", "result": "> 20.7", "unit": "µM"}, {"measurement": "GI50", "setting": "IGROV1 ovarian", "result": 0.561, "unit": "µM"}, {"measurement": "TGI", "setting": "IGROV1 ovarian", "result": "> 25", "unit": "µM"}, {"measurement": "GI50", "setting": "OVCAR-3 ovarian", "result": 8.08, "unit": "µM"}, {"measurement": "TGI", "setting": "OVCAR-3 ovarian", "result": "> 25", "unit": "µM"}, {"measurement": "GI50", "setting": "TK-10 renal", "result": 0.116, "unit": "µM"}, {"measurement": "TGI", "setting": "TK-10 renal", "result": "> 25", "unit": "µM"}, {"measurement": "GI50", "setting": "HCC-2998 colon", "result": 7.19, "unit": "µM"}, {"measurement": "TGI", "setting": "HCC-2998 colon", "result": 23.4, "unit": "µM"}, {"measurement": "GI50", "setting": "A498 renal", "result": 5.82, "unit": "µM"}, {"measurement": "TGI", "setting": "A498 renal", "result": 24.3, "unit": "µM"}, {"measurement": "GI50", "setting": "MDA-MB-231 breast", "result": 14.9, "unit": "µM"}, {"measurement": "TGI", "setting": "MDA-MB-231 breast", "result": "> 25", "unit": "µM"}, {"measurement": "GI50", "setting": "MALME-3M melanoma", "result": 10.1, "unit": "µM"}, {"measurement": "TGI", "setting": "MALME-3M melanoma", "result": "> 25", "unit": "µM"}, {"measurement": "GI50", "setting": "CCRF-CEM leukemia", "result": 9.07, "unit": "µM"}, {"measurement": "TGI", "setting": "CCRF-CEM leukemia", "result": "> 25", "unit": "µM"}, {"measurement": "GI50", "setting": "SF-268 CNS", "result": "> 22.3", "unit": "µM"}, {"measurement": "TGI", "setting": "SF-268 CNS", "result": "> 25", "unit": "µM"}, {"measurement": "GI50", "setting": "SR leukemia", "result": 7.57, "unit": "µM"}, {"measurement": "TGI", "setting": "SR leukemia", "result": "> 25", "unit": "µM"}, {"measurement": "GI50", "setting": "HCT-116 colon", "result": 11.3, "unit": "µM"}, {"measurement": "TGI", "setting": "HCT-116 colon", "result": "> 25", "unit": "µM"}, {"measurement": "GI50", "setting": "DU-145 prostate", "result": 7.52, "unit": "µM"}, {"measurement": "TGI", "setting": "DU-145 prostate", "result": "> 25", "unit": "µM"}, {"measurement": "GI50", "setting": "SW-620 colon", "result": 8.63, "unit": "µM"}, {"measurement": "TGI", "setting": "SW-620 colon", "result": "> 25", "unit": "µM"}, {"measurement": "GI50", "setting": "RXF 393 renal", "result": "> 15.3", "unit": "µM"}, {"measurement": "TGI", "setting": "RXF 393 renal", "result": "> 25", "unit": "µM"}, {"measurement": "GI50", "setting": "U251 CNS", "result": 14.9, "unit": "µM"}, {"measurement": "TGI", "setting": "U251 CNS", "result": "> 25", "unit": "µM"}, {"measurement": "GI50", "setting": "LOX IMVI melanoma", "result": 8.51, "unit": "µM"}, {"measurement": "TGI", "setting": "LOX IMVI melanoma", "result": "> 16.9", "unit": "µM"}, {"measurement": "GI50", "setting": "OVCAR-5 ovarian", "result": 12.1, "unit": "µM"}, {"measurement": "TGI", "setting": "OVCAR-5 ovarian", "result": "> 25", "unit": "µM"}, {"measurement": "GI50", "setting": "UACC-257 melanoma", "result": 8.55, "unit": "µM"}, {"measurement": "TGI", "setting": "UACC-257 melanoma", "result": "> 25", "unit": "µM"}]}
